The values below come from patent publication US9872882B2, “Aurantiamide dipeptide derivatives for treatment or prevention of angiogenesis-related diseases” (Mackay Medical College, priority 2015, dated 2018).

The subject of data set [1] is late EPCs. As to the kind of experiment: Capillary tube formation assay on Matrigel. Type of data set: cell-based, human. The note with it: 16 h treatment, FIG. 1E. How it is done: (§1) This investigation conforms with the principles outlined in the Declaration of Helsinki for use of human tissue. Ethical approval was granted by the Institutional Review Board of the Mackay Memorial Hospital, Taipei, Taiwan. Informed consent was obtained from healthy donors before the collection of peripheral blood (80 mL). The peripheral blood mononuclear cells (PBMCs) were fractionated from other blood components by centrifugation on Ficoll-Paque™ plus (GE Healthcare) according to the manufacturer's instructions. CD34-positive progenitor cells were obtained and cultured. In brief, the cells were isolated from PBMCs using CD34 MicroBead kit and MACSTM Cell Separation System (all from Miltenyi Biotec). CD34-positive EPCs were maintained in MV2 complete medium (PromoCell) consisting of endothelial basal medium, 20% fetal bovine serum, hEGF, VEGF, hFGF-B, IGF-1, ascorbic acid, and heparin. 1×10^6 cells/cm^2 were seeded on fibronectin-coated dish (BD Biosciences) and maintained in 37° C. incubator under a humidified 95% air and 5% CO2 atmosphere.
Matrigel (BD Biosciences, Bedford, Mass.), which was used to promote the differentiation of EPCs into a capillary tube-like structure, was added to 48-well plates. […] Tube formation was quantified by measuring the long axis of each tube in 3 random fields per well by using Image-Pro Plus software.

Data set [2] has as its system hyperoxia-induced retinal neovascularization. The experiment in a line: Oxygen-induced retinopathy (OIR) model. Type of data set: in vivo, BALB/c-nude mice. The note with it: retinal whole mounts, FIG. 5. An excerpt:
The mouse model of OIR has been widely used to induce retinal neovascularization in studies related to retinal ischaemic diseases, including AMD, and in studies evaluating the efficacy of antiangiogenic compounds. Briefly, BALB/c-nude mice at postnatal day (P7) are subjected to hyperoxia (75% oxygen) along with their nursing dam for 5 days (P12), and then to room air to produce retinal neovascularization. Neovascularization occurs upon return to normoxia and peaks at P17. All of the mice in the OR model were perfusion fixed via left ventricular puncture at the time of euthanasia, with 5 ml rhodamine-conjugated dextran. Then, angiography of retinal vasculature was performed and retinal whole mounts were prepared to score features of retinopathy.

Data set [3] concerns late EPCs. As to the kind of experiment: Transwell cell migration assay. Format: cell-based, human. The note with it: 16 h treatment, FIG. 1D. The method, then: as §1, with “1×10^6 cells/cm^2 were seeded on fibronectin-coated dish (BD Biosciences) and maintained in 37° C. incubator under a humidified 95% air and 5% CO2 atmosphere.” left out
EPCs (5×10^4 cells/well) were seeded onto the upper chamber with MV2 complete medium, then incubated in the bottom chamber with MV2 complete medium containing 2% FBS with the indicated concentrations of Fmoc-10. […] Cell migration was quantified by counting the number of stained cells in 10 random fields with the inverted phase contrast microscope and photographed.

The next data set has as its system B16F10 melanoma cells. As to the kind of experiment: Matrigel invasion assay. Type of data set: cell-based, mouse. The following applies: B16F10, 16 h, FIG. 4A. How it is done:
(§2) Mouse melanoma cell line (B16F10) was obtained from American Type Culture Collection (ATCC, Manassas, Va.) and cultured in DMEM containing 10% FBS, penicillin (100 units/ml), streptomycin (100 μg/ml), and L-glutamine (2[…]mM). Cells were maintained in humidified air containing 5% CO2 at 37° C.
The upper side of the filters was coated with Matrigel (BD Biosciences, Bedford, Mass.) at a concentration of 125 […]μg/cm^2. B16F10 cells (5×10^4 cells/well) were seeded onto the upper chamber with serum-free medium, then incubated in the bottom chamber with culture medium containing 10% FBS in the absence or presence of Fmoc-10a. After 16 h of treatment, cells on the upper side of the filters were mechanically removed, and those migrated on the lower side were fixed with 4% formaldehyde, then stained with 0.5% crystal violet for 10 min. Finally, invaded cells were quantified by counting the number of stained cells in 10 random fields with the inverted phase contrast microscope and photographed.

Data set [4] concerns VEGF-induced microvessel formation. The experiment in a line: Directed in vivo angiogenesis assay (DIVAA). Further details: species or system C57BL/6 mice. The note with it: VEGF-containing DIVAA tubes implanted in mice, 15 days, FIG. 3B. The method, then:
Surgical silicone tubes were filled at 4° C. with Matrigel containing VEGF with or without Fmoc-10a. Then, the dorsal haunches of the anesthetized mice (C57BL/6 mice) were shaved and sterile prepped. A 5 mm cutaneous incision was made and a 10 mm deep subcutaneous pocket was created with a sterile hemostat. DIVAA tubes were incubated at 37° C. for 1 hour to allow gel formation and then implanted into the dorsal flank of mice. After 15 days, DIVAA tubes were taken and photographed. Neovessels were quantified by measuring the hemoglobin of the plug with the Drabkin method. All procedures involving animal experiment were approved by the Institutional Animal Care and Use Committee at Mackay Medical College.

Data set [5] concerns early EPCs. The experiment in a line: Colony-forming assay (CFU-Hill). Type of data set: cell-based, human. The note with it: FIGS. 2A&2B. The source says:
Isolated PBMCs are resuspended in MV2 complete medium. After 2 days, the nonadherent cells were collected and replated onto a fibronectin-coated 24-well plate. Five days later, the number of colony-forming units (CFUs) od early EPCs per well was counted.

For data set [6], the system named is early EPCs. The experiment in a line: Early EPC chemotaxis assay (Transwell). Format: cell-based, human. The note with it: 4 hours, FIG. 2C. The method, then:
The chemotactic motility of early EPCs was evaluated using a Transwell. The lower filter surface was coated with gelatin. Fmoc-10a in presence or absence of MV2 complete medium was placed in the lower wells. The chamber was incubated at 37° C. for 4 hours. Cells were fixed with cold methanol and stained with 0.5% crystal violet.

Data set [7] has as its system VEGF release from B16F10 melanoma cells. As to the kind of experiment: VEGF ELISA assay. Type of data set: cell-based, mouse. The note with it: B16F10, 24 hr, ELISA of supernatant, FIG. 4B. The method, then: as §2
B16F10 cells were treated with various concentrations of Fmoc-10a or vehicle for 24 hr, and then the supernatant was collected to examine the amount of vascular endothelial growth factor (VEGF) protein. VEGF mouse ELISA Kit (Novex, Invitrogen) was used according to the manufacturer's instructions.
(ELISA stands for enzyme-linked immunosorbent assay.)

A further data set deals with B16F10 melanoma. The experiment in a line: Subcutaneous xenograft model. The note with it: daily intraperitoneal injection, FIG. 4C. Type of data set: in vivo, C57BL/6 mice. How it is done: B16F10 cells (2×10^6) in a volume of 100 μL were injected subcutaneously into the right flank of the C57BL/6 mice. After 9 days, when tumors reached 2 mm in diameter, the mice were randomly given vehicle or the indicated doses of Fmoc-10a daily by intraperitoneal injection. Tumor size and body weight were measured every day. The tumor volume was calculated according to the following formula: V=(length×width^2/2). In accordance with the Animal Ethics Committee, the experiments should be stopped when an unbearable situation appeared in animals.

Data set [8] concerns late EPCs. As to the kind of experiment: Cytotoxicity assay (LDH release). Format: cell-based, human. The note with it: 48 h, even at high concentration (30 μM), FIG. 1C. How it is done:
as §1
EPCs were treated with MV2 complete medium containing 2% FBS for 48 h in the absence or presence of Fmoc-10a. The percentage of LDH release was calculated from the ratio of LDH activity in the medium to LDH activity in the cell lysate after Fmoc-10a treatment.

The test system of data set [9] is late EPCs. As to the kind of experiment: Cell proliferation assay (MTT). Type of data set: cell-based, human. The note with it: 48 h treatment, FIG. 1B. The method, then: as §1
EPCs (5×10^3 cells/well) were seeded onto 96-well plates. After 24 h incubation, the culture medium was removed and cells were incubated with fresh MV2 complete medium containing 2% FBS for 48 h in the absence or presence of Fmoc-10a. […] Formazan crystal was lysed by dimethyl sulfoxide (DMSO) and absorbance was measured at 550 nm with ELISA-reader.

For data set [10], the system named is VEGF-induced vessels sprouting from aortic rings. The experiment in a line: Aortic ring sprouting assay (ex vivo). Further details: species or system Sprague-Dawley rats. The note with it: VEGF 20 ng/ml, day 8, FIG. 3A. How it is done: Aortas were harvested from 8- to 10-week-old Sprague-Dawley rats. Following a complete washing, the aortas were cut into 1 mm ring segments. The aortic rings were placed in the 48-well plates which were pre-coated with 130 μl Matrigel and polymerized at 37° C. The wells were subsequently overlaid with another 50 μl Matrigel for sealing. VEGF (20 ng/ml) with or without Fmoc-10a was then added to the well. The cultured medium was changed every 3 days. Sprouting endothelial cells were observed and photographed on day 8. The area of sprouting vessels was measured quantitatively by Image-Pro Plus software.

The subject of the next data set is B16F10 cells. The experiment in a line: Experimental metastasis model. Format: in vivo, C57BL/6 mice. The note with it: B16F10 tail vein; 1.5 or 4.5 mg/kg intraperitoneally every day, FIG. 4D. How it is done: B16F10 cells (2×10^6) were slowly injected into the lateral tail vein of C57BL/6 mice to initiate tumor metastasis. Fmoc-10a (1.5 or 4.5 mg/kg) was intraperitoneally administered to mice every day from 3 days before tumor cell injection to 21 days after tumor cell injection (the day sacrificed).

In the case of `CC(C)[C@H](NC(=O)OCC1c2ccccc2-c2ccccc21)C(=O)N[C@@H](CO)Cc1ccccc1` [Fmoc-10a, (9H-fluoren-9-yl)methyl (S)-1-((R)-1-hydroxy-3-phenylpropan-2-ylamino)-3-methyl-1-oxobutan-2-ylcarbamate], the “tube formation of late EPCs” value with late EPCs [1] is “significantly inhibits”. The “hyperoxia-induced pathological neovascularization in mice” value in [2] is reported as “significantly blocks hyperoxia-induced pathological neovascularization”. Further, the “cell migration of late EPCs” value in the data set on late EPCs [3] is on record as “significantly inhibits cell migration”. Besides, the “cell invasion of melanoma cells” value with B16F10 melanoma cells is recorded as “significantly inhibits cell invasion”. In addition, the “microvessel formation in the Matrigel plugs (hemoglobin content)” value in data set [4] is on record as “attenuated concentration-dependently microvessel formation”. Moreover, the “CFU-Hill colonies of early EPCs” value in the data set with early EPCs [5] is “significantly inhibits CFU-Hill colonies”. For the same molecule, the “chemotaxis of early EPCs” value in the data set with early EPCs [6] is “markedly suppresses chemotaxis”. In [7], the “production of VEGF in melanoma cells” value was “significantly inhibits”. Further, the “tumor growth of melanoma cells” value in the data set with B16F10 melanoma is reported as “potently blocks tumor growth of melanoma cells in a dose-dependent manner”. Moreover, in the data set with late EPCs [8], the “LDH release of late EPCs” value is listed as “does not induce LDH release”. Further, in the data set with late EPCs [9], the “cell proliferation of late EPCs” value is on record as “suppresses cell proliferation of late EPCs in a concentration-dependent manner”. The “VEGF-induced vessels sprouting from aortic rings” value in data set [10] is “dramatically abrogated VEGF-induced vessels sprouting”. In addition, in the data set on B16F10 cells, the “lung metastasis of melanoma cancer (pulmonary colony number)” value was “substantially suppresses lung metastasis”.
As to “Avastin: Avastin (10 μg) was used as positive control in the OIR model [reference compound]”, in data set [2], the “hyperoxia-induced pathological neovascularization in mice” value is given as “significantly blocks hyperoxia-induced pathological neovascularization”.
